Laboratory results from patent publication EP3062762B1, “STABLE SOLUTIONS CONTAINING A PHYSIOLOGICAL COOLING REAGENT AND USE THEREOF” (priority 2013, dated 2015).
Where two headings read alike, the source gives them in different places.

Key:
[1] = octanol/water; cited from earlier work
[2] = Miscibility with water and lipophilic cosmetic solvents (Neutralöl, Paraffinöl); assay type: physicochemical; conditions: for Löslichkeit + Neutralöl auf: 2,5 g: 0,1 g PKR made up with Neutralöl to 2,5 g; for Löslichkeit + Neutralöl auf: 5 g: 0,1 g PKR made up with Neutralöl to 5 g; for Löslichkeit + Neutralöl auf: 10 g: 0,1 g PKR made up with Neutralöl to 10 g; for Löslichkeit + Paraffinöl auf: 5 g: 0,1 g PKR made up with Paraffinöl to 5 g; for Löslichkeit + Paraffinöl auf: 10 g: 0,1 g PKR made up with Paraffinöl to 10 g; for Löslichkeit + Wasser auf: 10 g: 0,1 g PKR made up with water to 10 g; for Löslichkeit + Wasser auf: 20 g: 0,1 g PKR made up with water to 20 g; for Löslichkeit + Neutralöl auf: 10 g: key: +: klare Lösung; -: Zweiphasengemisch; for Löslichkeit + Neutralöl auf: 2,5 g: key: +: klare Lösung; -: Zweiphasengemisch; for Löslichkeit + Neutralöl auf: 5 g: key: +: klare Lösung; -: Zweiphasengemisch
Text: Mischungen aus 40 Gew.-% Kühlreagenz (a) und jeweils 60 bzw. 50 Gew.-% Alkohol (b) wurden gemäß Beispiel 1 erzeugt bzw. mit 10 Gew.-% Wasser versetzt.
Anschließend wurde alternativ mit Wasser, Neutralöl oder Paraffinöl versetzt.

[3] = cited from earlier work

| SMILES | log Kow [1] | Löslichkeit + Neutralöl auf: 2,5 g ([2]; Lagertemperatur 8 °C) | Löslichkeit + Neutralöl auf: 2,5 g ([2]; Lagertemperatur 20 °C) | Löslichkeit + Neutralöl auf: 5 g ([2]; Lagertemperatur 8 °C) | Löslichkeit + Neutralöl auf: 5 g ([2]; Lagertemperatur 20 °C) | Löslichkeit + Neutralöl auf: 10 g ([2]; Lagertemperatur 8 °C) | Löslichkeit + Neutralöl auf: 10 g ([2]; Lagertemperatur 20 °C) | Löslichkeit + Paraffinöl auf: 5 g ([2]; Lagertemperatur 8 °C) | Löslichkeit + Paraffinöl auf: 5 g ([2]; Lagertemperatur 20 °C) | Löslichkeit + Paraffinöl auf: 10 g ([2]; Lagertemperatur 8 °C) | Löslichkeit + Paraffinöl auf: 10 g ([2]; Lagertemperatur 20 °C) | Löslichkeit + Wasser auf: 10 g ([2]; Lagertemperatur 8 °C) | Löslichkeit + Wasser auf: 10 g ([2]; Lagertemperatur 20 °C) | Löslichkeit + Wasser auf: 20 g ([2]; Lagertemperatur 8 °C) | Löslichkeit + Wasser auf: 20 g ([2]; Lagertemperatur 20 °C) | Löslichkeit in Wasser ([3]; water) | Löslichkeit in Wasser ([3]; bei 20 °C) |
| --- | --- | --- | --- | --- | --- | --- | --- | --- | --- | --- | --- | --- | --- | --- | --- | --- | --- |
| CC(O)CO (stereo not shown) [1,2-Propandiol] | -0,90 |  |  |  |  |  |  |  |  |  |  |  |  |  |  |  |  |
| CC(C)[C@@H]1CC[C@@H](C)C[C@H]1O [L-Menthol] |  | + | + | + | + | + | + | + | + | + | + | - | - | - | - | 0,355 g/L |  |
| CNC(=O)C(C)(C(C)C)C(C)C [WS-23, 2-Isopropyl-N,2,3-trimethylbutanamid] |  | + | + | + | + | + | + | - | - | - | - | - | - | - | + |  | ca. 0,5 g/L |
